Experimental data published in US20230134859A1, “METHOD FOR SCREENING FOR, METHOD FOR PRODUCING, AND METHOD FOR DESIGNING DRUG ACTIVE INGREDIENTS” (SKY PHARMA CO., LTD., priority 2020, published 2023).

Columns and labels:
Format in all cases: in vivo
[1] = test system: sox1α, sox2, sox3, and her6; assay: Test Example 1: quantitative PCR of neural stem cell markers in brains of treated zebrafish; details: brain of treated zebrafish individuals; ΔΔCt; vs control
Protocol: Moreover, the brains of the treated zebrafish individuals were dissected and washed with sterile distilled water, and then crushed by pipetting or 1 ml syringe suction discharge with 18 G to 24 G needles in 500 μl of Sepasol-RNA I Super G (Nacalai Tesque). A deproteinization operation was conducted once by equivalent phenol/chloroform treatment and once by chloroform treatment, and the supernatant was subjected to RNA purification using an RNA purification column (RNeasy Plus Mini Kit, Qiagen). The elute was reverse-transcribed using a mixed primer of random hexamer and oligo-dT (ReverTra Ace qPCR Kit, TOYOBO) at 37° C. for 15 minutes and 98° C. for 5 minutes, and quantitative PCR of expression levels of sox1α, sox2, sox3, and her6, which are markers of neural stem cells, was performed. Quantitative PCR was performed with SYBER Green Realtime PCR Master Mix (TOYOBO). For the PCR reaction, ABI PRISM 7700 or LightCycler from Roche Diagnostics K.K. was used. Quantification was performed in 3 wells per identical sample (n=3). The obtained data was comparatively quantified by a ΔΔCt method using a normalizer (β-actin, GAPDH, 18S, or the like). In order to confirm that the quantitative reaction was reliable, it was confirmed that the amplification product was in a band by agarose electrophoresis.

retinal ganglion cells = assay: Test Example 5: regeneration induction of mouse retinal neurons by eye drop in high intraocular pressure glaucoma model; details: 100 μM eye drops to both eyes three times a day; 10 days to 1 month; vs control
Protocol: High intraocular glaucoma model mouse (transgenic lines specifically expressing green fluorescent protein (GFP) in retinal ganglion cells)
To an adult of a high intraocular pressure glaucoma model mouse, a solution prepared by dissolving 100 μM of the test compound in 1% methyl cellulose/physiological saline was administered by instillation to both eyes at […] per a time three times a day.
As a control experiment (control), an experiment of instilling 1% methyl cellulose/physiological saline containing no test compound was also performed.

Purkinje cells = assay: Test Example 6: increase in Purkinje cells of adult mouse after injection into E11.5 fetal ventricle; details: test compounds = Compounds 1 to 7; 100 μM injected into E11.5 fetal ventricle, counted in adult mice; vs control; N=10
Protocol: A solution prepared by dissolving 100 μM of the test compound in physiological saline was injected into E11.5 mouse fetal ventricle. Brains of adult mouse individuals were fixed, and slice sections of cerebellar Purkinje cell layers were immunostained with an anti-d-Calbindin antibody, which is a marker of cell bodies and neurites of Purkinje cells. After staining, the number of Purkinje cells was counted, and the average value thereof was calculated.
As a control experiment (control), a similar experiment was performed using physiological saline containing no test compound.
The number of samples is 10 for each of Compounds 1 to 7 and control (N=10).

cardiomyocytes = assay: Test Example 8: enhancement of myocardium in zebrafish embryo (nkx2.5 in situ hybridization, blood cells pumped per heartbeat); details: test compounds = Compounds 1 to 7
Protocol: Zebrafish embryos at 10 hours after fertilization were held with the dorsal side of the head up on a coffin (plastic plate with V-shaped grooves for holding), and a glass capillary was inserted into a midline between head and ear vesicles (heart primordium). Nitrogen gas pressure (15 picosiemens) was applied for 15 to 45 milliseconds and injected into the gap just below the neural tube. The test compound concentration was 100 μM/E3, and 0.025% (final concentration) phenol red was mixed as a tracer of the injection solution. The injection was performed in pulses with a foot pedal and continued until phenol red was distributed in an elliptical shape with a major axis of 200 μm from the insertion point. After injection, embryos were cultured at 28.5° C. for 14 hours in E3. After chorions were removed with tweezers, the embryos were fixed with 4% paraformaldehyde/PBS at normal temperature for 1 hour, and in situ hybridization was performed overnight at 65° C. in the presence of a DIG probe of nk×2.5 as a cardiac muscle marker according to a conventional method. After washing, cardiomyocytes were stained by an alkali phosphatase color reaction using an anti-DIG antibody. The stained embryos were washed with PBS, embedded in 75% glycerin/PBS and localized, and then microscopically photographed with incident light. The number of tested individuals was unified with n=80 for each compound.
In addition, the zebrafish embryos injected with the test compound by the above-described method were cultured at 28.5° C. until 48 hours after fertilization, embedded in 3% methyl cellulose/E3, and a moving image was photographed. The number of blood cells pumped in one heartbeat in time-lapse was counted n=15 and compared to Ringer injected individuals.

pancreatic β cells = assay: Test Example 9: pancreatic β cells and insulin in transgenic zebrafish embryos; details: vs control
Protocol: Transgenic zebrafish expressing pancreatic β-cell GFP
Transgenic zebrafish embryos expressing pancreatic β-cell GFP at 10 hours after fertilization were held with the dorsal side of the head up on a coffin, and a glass capillary was inserted from the dorsal side into a gap just below the midline neural tube at about 2 times the distance between the rostral end and the ear vesicles to the caudal side (pancreatic primordium). A nitrogen gas pressure (15 picosiemens) was applied for 15 to 45 milliseconds, and the test compound was injected. The concentration of the test compound was 100 nM/E3, and 0.025% (final concentration) phenol red was mixed as a tracer of the infusion solution. The injection was performed in pulses with a foot pedal and continued until phenol red was distributed in an elliptical shape with a major axis of 200 μm from the insertion point.
The test compound (100 nM) was injected on a coffin in transgenic zebrafish embryos expressing pancreatic β-cell GFP at 10 hours after fertilization. After injection, embryos were cultured in E3 at 28.5° C. for 14 hours. After chorions were removed with tweezers, the embryos were fixed with 4% paraformaldehyde/PBS at room temperature for 1 hour, and in situ hybridization was performed overnight at 65° C. in the presence of a DIG probe of insulin (ins) according to a conventional method. After washing, β cells were stained by an alkali phosphatase color reaction using an anti-DIG antibody. After staining, the embryos were washed with PBS, embedded in 75% glycerin/PBS and localized, and then microscopically photographed with incident light. The number of test individuals was unified with n=100 for each test compound (FIG. 23).
Transgenic zebrafish embryos expressing pancreatic β-cell GFP at 10 hours after fertilization were injected with the test compound (100 nM or 5 nM) on the coffin. After injection, embryos were cultured in E3 at 28.5° C. for 20 hours in the presence of 0.2 mM phenylthiourea (PTU). After chorions were removed with tweezers, the embryos were fixed with 4% paraformaldehyde/PBS at normal temperature for 1 hour, immunohistochemically reacted with an anti-insulin antibody according to a conventional method, and then reacted with an Alexa fluor 488 anti-mouse IgG secondary antibody. The reacted embryos were washed with PBS, embedded in 75% glycerin/PBS and localized, and then microscopically photographed with 488 nm excitation light (FIG. 24). The number of tested individuals was unified with n=10 for each compound. The insulin amount was quantified by measuring the average fluorescence intensity in a circle with a radius of 100 μm centered on the fluorescence point (FIG. 25).

CNS(=O)(=O)c1ccccc1Nc1nc(Nc2ccc(N3CCN(C)CC3)cc2OC)ncc1Cl [Compound 7, 2-[[5-Chloro-2-[2-methoxy-4-(4-methylpiperazin-1-yl)anilino]pyrimidin-4-yl]amino]-N-methylbenzenesulfonamide]
expression levels of sox1α, sox2, sox3, and her6 (quantitative PCR) [1]: significant increase in expression levels | amplification of retinal ganglion cells (retinal ganglion cells): amplification of retinal ganglion cells was remarkably observed | number of Purkinje cells in the cerebellar Purkinje cell layers (Purkinje cells): significantly higher than that of the control | amount of cardiomyocytes (in situ hybridization, nkx2.5) (cardiomyocytes; 100 μM injected at heart primordium 10 h after fertilization, vs control, n=80): increase in the amount of cardiomyocytes was observed | stroke volume of blood cells (moving image of the heartbeat) (cardiomyocytes; 100 μM, 48 h after fertilization): remarkably improved | number of blood cells pumped in one heartbeat (cardiomyocytes; 100 μM, 48 h after fertilization, vs control, n=15): remarkable increase in the number of blood cells pumped in one heartbeat | number of β cells (pancreatic β-cell GFP fluorescence) (pancreatic β cells; 100 nM injected at pancreatic primordium 10 h after fertilization, observed up to 48 h): increased as compared with the control individual | production amount of insulin by β cells (in situ hybridization, ins probe) (pancreatic β cells; 100 nM, 14 h after injection, n=100): significantly increased as compared with the control individual
